Test results as given in ChEMBL document CHEMBL3616390, “Design and synthesis of N-[6-(Substituted Aminoethylideneamino)-2-Hydroxyindan-1-yl]arylamides as selective and potent muscarinic M₁ agonists” (Bioorg Med Chem Lett, 2015).
Active and inactive are the calls of the source. The calls are words filed in the database; no cut-off is given here.

Assays:
[1] = Drug degradation in rat plasma assessed as formamidine hydrolysis after 4 hrs; format: ADME, cell-free; details: read-out: Drug degradation
[2] = biological target: T1, Muscarinic acetylcholine receptor M2 (Homo sapiens) (UniProt P08172); experiment: Agonist activity at human muscarinic M2 receptor expressed in CHO cells at 280 nM after 30 mins by GTPgamma35S binding assay relative to control; format: functional, cell-based
T1 sequence (whole entry): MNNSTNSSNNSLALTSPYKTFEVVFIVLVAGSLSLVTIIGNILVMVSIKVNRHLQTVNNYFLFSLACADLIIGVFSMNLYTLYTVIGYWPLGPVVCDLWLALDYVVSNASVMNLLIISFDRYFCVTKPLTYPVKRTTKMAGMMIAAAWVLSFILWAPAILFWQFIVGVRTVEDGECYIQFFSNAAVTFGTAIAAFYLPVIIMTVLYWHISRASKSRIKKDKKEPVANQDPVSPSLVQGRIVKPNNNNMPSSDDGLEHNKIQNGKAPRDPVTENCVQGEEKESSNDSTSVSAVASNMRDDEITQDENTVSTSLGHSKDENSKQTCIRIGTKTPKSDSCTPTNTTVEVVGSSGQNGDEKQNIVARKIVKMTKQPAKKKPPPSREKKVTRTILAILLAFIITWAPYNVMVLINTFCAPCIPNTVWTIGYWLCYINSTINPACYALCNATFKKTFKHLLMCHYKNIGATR

[3] = biological target: T2, Muscarinic acetylcholine receptor M1 (Homo sapiens) (UniProt P11229); experiment: Agonist activity at human muscarinic M1 receptor expressed in CHO cells after 30 mins by GTPgamma35S binding assay relative to oxotremorine-M; format: functional, cell-based
T2 sequence (whole entry): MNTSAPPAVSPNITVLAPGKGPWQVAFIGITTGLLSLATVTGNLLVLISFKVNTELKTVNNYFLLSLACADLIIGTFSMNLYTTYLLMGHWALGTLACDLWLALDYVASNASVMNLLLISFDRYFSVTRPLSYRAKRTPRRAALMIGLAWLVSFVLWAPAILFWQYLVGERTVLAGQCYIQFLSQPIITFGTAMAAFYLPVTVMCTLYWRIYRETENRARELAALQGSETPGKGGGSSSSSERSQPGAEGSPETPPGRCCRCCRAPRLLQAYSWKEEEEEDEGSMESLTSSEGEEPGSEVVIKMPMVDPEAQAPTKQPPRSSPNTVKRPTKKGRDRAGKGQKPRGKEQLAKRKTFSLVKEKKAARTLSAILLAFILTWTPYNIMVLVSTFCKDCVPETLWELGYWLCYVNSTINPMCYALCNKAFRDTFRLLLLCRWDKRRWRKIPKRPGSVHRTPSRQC

[4] = biological target: T1, Muscarinic acetylcholine receptor M2 (Homo sapiens); experiment: Agonist activity at human muscarinic M2 receptor expressed in CHO cells after 30 mins by GTPgamma35S binding assay relative to oxotremorine-M; format: functional, cell-based
[5] = Drug uptake in rat whole brain at 10 mg/kg, po measured at 3 hrs; format: ADME, organism-based; details: read-out: Drug uptake
[6] = biological target: T3, Muscarinic acetylcholine receptor M4 (Homo sapiens) (UniProt P08173); experiment: Agonist activity at human muscarinic M4 receptor expressed in CHO cells after 30 mins by GTPgamma35S binding assay relative to oxotremorine-M; format: functional, cell-based
T3 sequence (whole entry): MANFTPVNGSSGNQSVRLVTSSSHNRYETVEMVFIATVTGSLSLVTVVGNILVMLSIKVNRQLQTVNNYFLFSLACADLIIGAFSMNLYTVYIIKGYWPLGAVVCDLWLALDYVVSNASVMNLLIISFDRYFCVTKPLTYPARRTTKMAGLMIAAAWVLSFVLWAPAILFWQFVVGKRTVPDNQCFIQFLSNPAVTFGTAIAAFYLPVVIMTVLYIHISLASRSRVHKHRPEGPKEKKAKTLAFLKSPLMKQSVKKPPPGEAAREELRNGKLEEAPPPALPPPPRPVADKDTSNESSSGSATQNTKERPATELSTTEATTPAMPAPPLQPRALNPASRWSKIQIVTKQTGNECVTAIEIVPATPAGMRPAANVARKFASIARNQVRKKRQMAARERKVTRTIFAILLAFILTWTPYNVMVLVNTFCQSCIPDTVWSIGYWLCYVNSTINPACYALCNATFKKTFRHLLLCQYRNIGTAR

[7] = biological target: Muscarinic acetylcholine receptor M3 (Homo sapiens, UniProt P20309); experiment: Agonist activity at human muscarinic M3 receptor expressed in CHO cells after 30 mins by GTPgamma35S binding assay; format: functional, cell-based; details: cho
[8] = biological target: T4, Muscarinic acetylcholine receptor M5 (Homo sapiens, UniProt P08912); experiment: Agonist activity at human muscarinic M5 receptor expressed in CHO cells after 30 mins by GTPgamma35S binding assay; format: functional, cell-based; details: cho
T4 sequence (P08912 whole entry): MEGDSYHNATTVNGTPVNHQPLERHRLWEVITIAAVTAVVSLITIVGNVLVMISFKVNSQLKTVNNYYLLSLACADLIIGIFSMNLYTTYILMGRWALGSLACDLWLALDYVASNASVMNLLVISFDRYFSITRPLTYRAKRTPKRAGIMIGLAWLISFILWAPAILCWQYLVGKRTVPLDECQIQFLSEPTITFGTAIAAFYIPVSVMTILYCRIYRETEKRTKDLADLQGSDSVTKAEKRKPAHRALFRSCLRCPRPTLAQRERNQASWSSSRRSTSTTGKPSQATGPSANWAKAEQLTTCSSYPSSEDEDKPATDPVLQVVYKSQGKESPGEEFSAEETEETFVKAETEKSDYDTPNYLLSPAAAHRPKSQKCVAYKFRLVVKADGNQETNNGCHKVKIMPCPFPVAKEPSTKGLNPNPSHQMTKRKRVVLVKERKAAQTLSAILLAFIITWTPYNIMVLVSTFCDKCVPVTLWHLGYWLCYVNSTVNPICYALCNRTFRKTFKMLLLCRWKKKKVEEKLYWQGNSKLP

[9] = system: Rattus norvegicus; experiment: AUC (0 to 8 hrs) in rat at 10 mg/kg, po; format: ADME, organism-based; set-up: time < 8 hr, dose 10 mg/kg, route oral; details: in vivo
[10] = biological target: T5, Muscarinic acetylcholine receptor M1 (Homo sapiens, UniProt P11229); experiment: Agonist activity at human muscarinic M1 receptor expressed in CHO cells after 30 mins by GTPgamma35S binding assay; format: functional, cell-based
T5 sequence (P11229 whole entry): T2 sequence (whole entry)

[11] = Dissociation constant, pKa of the compound; format: physicochemical
[12] = Partition coefficient, log D of the compound; format: physicochemical; details: octanol/water
[13] = Oral bioavailability in rat; format: ADME, organism-based; details: in vivo
[14] = system: Rattus norvegicus; experiment: Cognitive enhancement activity in rat at 30 mg/kg, po by spatial learning test; format: functional, organism-based
[15] = biological target: T1, Muscarinic acetylcholine receptor M2 (Homo sapiens); experiment: Agonist activity at human muscarinic M2 receptor expressed in CHO cells after 30 mins by GTPgamma35S binding assay relative to acetylcholine; format: functional, cell-based
[16] = biological target: T6, Muscarinic acetylcholine receptor M2 (Homo sapiens, UniProt P08172); experiment: Agonist activity at human muscarinic M2 receptor expressed in CHO cells after 30 mins by GTPgamma35S binding assay; format: functional, cell-based
T6 sequence (P08172 whole entry): T1 sequence (whole entry)

[17] = biological target: T3, Muscarinic acetylcholine receptor M4 (Homo sapiens); experiment: Agonist activity at human muscarinic M4 receptor expressed in CHO cells after 30 mins by GTPgamma35S binding assay relative to acetylcholine; format: functional, cell-based
[18] = system: Plasma; experiment: Metabolic stability in rat plasma; format: ADME, cell-free
[19] = biological target: T7, Muscarinic acetylcholine receptor M4 (Homo sapiens, UniProt P08173); experiment: Agonist activity at human muscarinic M4 receptor expressed in CHO cells after 30 mins by GTPgamma35S binding assay; format: functional, cell-based
T7 sequence (P08173 whole entry): T3 sequence (whole entry)

[20] = Oral bioavailability in monkey; format: ADME, organism-based, Macaca mulatta; details: rhesus monkey, in vivo
[21] = system: Rattus norvegicus; experiment: Cognitive enhancement activity in po dosed rat by 8-arm radial maze test; format: functional; details: read-out: MED
[22] = system: Rattus norvegicus; experiment: AUC (0 to 6 hrs) in rat at 10 mg/kg, po; format: ADME, organism-based; set-up: time < 6 hr, dose 10 mg/kg, route oral; details: in vivo

Muscarinic acetylcholine receptor M3, sequence (P20309 whole entry): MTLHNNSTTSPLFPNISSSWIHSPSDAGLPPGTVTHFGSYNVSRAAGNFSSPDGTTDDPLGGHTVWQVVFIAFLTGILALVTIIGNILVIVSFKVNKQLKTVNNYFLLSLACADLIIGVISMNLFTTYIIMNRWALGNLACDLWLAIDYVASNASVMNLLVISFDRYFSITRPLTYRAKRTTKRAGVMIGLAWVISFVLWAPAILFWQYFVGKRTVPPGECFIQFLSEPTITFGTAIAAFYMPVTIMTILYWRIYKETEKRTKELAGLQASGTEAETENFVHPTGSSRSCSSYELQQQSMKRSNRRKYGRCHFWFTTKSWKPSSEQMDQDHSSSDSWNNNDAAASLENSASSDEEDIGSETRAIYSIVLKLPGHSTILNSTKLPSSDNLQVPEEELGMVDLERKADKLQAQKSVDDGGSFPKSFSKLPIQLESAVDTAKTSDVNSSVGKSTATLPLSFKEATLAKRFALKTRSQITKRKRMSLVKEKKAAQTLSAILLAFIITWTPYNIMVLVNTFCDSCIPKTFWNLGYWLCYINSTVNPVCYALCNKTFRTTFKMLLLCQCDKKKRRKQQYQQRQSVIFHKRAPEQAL

SMILES	Efficacy [3] [%]	Efficacy [4] [%]	concentration at 3 h [5] [ng/g]	Efficacy [6] [%]	EC50 [7]	EC50 [8]	AUC [9] [ng·h/g]	EC50 [10] [nM]	pKa [11]	logD [12]	EC50 [16] [nM]	EC50 [19] [nM]	other results
C/C(=N\c1ccc2c(c1)[C@@H](NC(=O)c1ccc(Br)cc1)[C@H](O)C2)N1CCCCC1	–	–	–	–	–	–	–	–	–	–	–	–	metabolised at 4 h [1]: 5%
O=C(N[C@@H]1c2cc(/N=C/N3CCCC3)ccc2C[C@H]1O)c1ccc(Br)cc1	–	–	–	–	–	–	–	–	–	–	–	–	metabolised at 4 h [1]: 50%; Emax [2]: 80%
C/C(=N\c1ccc2c(c1)[C@@H](NC(=O)c1ccc(Br)cc1)[C@H](O)C2)N(C)c1ccc(F)cc1	31.5	< 20	891	< 20	Not Active	Not Active	4681	118	–	–	–	–	–
CN1CCCC/C1=N\c1ccc2c(c1)[C@@H](NC(=O)c1ccc(Br)cc1)[C@H](O)C2	–	–	< 40	–	–	–	506	80	9.9	1.04	24	113	bioavailability [13]: 68%; Activity [14]: Active; Efficacy [15]: 28%; Efficacy [17]: 34%; Stability [18]: Stable
C/C(=N\c1ccc2c(c1)[C@@H](NC(=O)c1ccc(Br)cc1)[C@H](O)C2)Nc1ccc(F)cc1	79.4	25.2	147	23.1	Not Active	Not Active	1369	51	8.2	–	749	1110	–
C/C(=N\c1ccc2c(c1)[C@@H](NC(=O)c1ccc(-c3ccccc3)cc1)[C@H](O)C2)N(C)Cc1ccc(F)cc1	110	34.6	141	29.7	Not Active	Not Active	–	22.8	8.3	2.3	693	1060	bioavailability [20]: 46%; bioavailability [13]: 32%; minimal effective dose [21]: 1 mg/kg; AUC [22]: 533 ng·h/g
C/C(=N\c1ccc2c(c1)[C@@H](NC(=O)c1ccc(Br)cc1)[C@H](O)C2)NCc1ccc(F)cc1	89.9	31.8	64	33.5	Not Active	Not Active	634	20.9	8.49	2.01	71.8	115	–
